melting point	Structure (SMILES)
200 to 201 °C	Cc1c(CC(=O)O)cc2ccc(F)cc2c1Cc1ccc(S(=O)(=O)C(F)(F)F)cc1
56.5 to 58 °C	COc1ccc(-c2snnc2-c2ccccc2)cc1
184 to 186 °C	CC(=O)NCC=C1CCc2ccc3nc(C)sc3c21
98.8 to 99.8 °C	C=CCc1c(OC(C)=O)ccc2c(C)cc(=O)oc12
170 °C	O=C(c1ccc2ncccc2c1)c1ccc2nc(Cl)nc(-c3cccc(Cl)c3)c2c1
271 to 273 °C	COCCn1c2cc(CCO)c(OC)cc2c2c3c(c(-c4ccccc4Cl)cc21)C(=O)NC3=O
233 to 235 °C	CC(C)S(=O)(=O)N1CCN(Cc2ccc(COc3cccc4c3CN(C3CCC(=O)NC3=O)C4=O)cc2)CC1 (centres undefined)
193 to 195 °C	COc1ccc(C(=O)Nc2c(Cl)cncc2Cl)cc1OC1CC=CC1
203 to 206 °C	CC(C)(C)c1cc(C=Cc2ccccc2NC(=O)NC2CCCCCC2)cc(C(C)(C)C)c1O
121 to 123 °C	CCC(CC)Oc1nc(C)nc(Nc2c(C)cc(C)cc2C)c1CO
156 °C	CCOC1=CC(=O)N([C@@H]2c3cc(C#N)ccc3OC(C)(C)[C@H]2OC(C)=O)C1 (relative stereo)
159 °C	CCc1nc2c(o1)C(=O)C(Cl)=C(Nc1ccccc1)C2=O
98 to 102 °C	Cc1ccc2cccc(OCc3c(Cl)ccc(S(=O)(=O)N(C)CCCCCC(=O)O)c3Cl)c2n1
88.5 to 90.5 °C	COC(=O)c1ccc(C(=O)Oc2ccc([Si](C)(C)C)cc2C(C)=O)cc1
183 to 185 °C	O=C(Nc1cc(F)cc2c(=O)cc(C(=O)O)oc12)c1ccc2c(c1)CC(CCCc1ccccc1)O2 (centres undefined)
85 to 86 °C	C(=C\c1nc(COc2ccc(CCCCn3ccnc3-c3ccccc3)cc2)co1)/c1ccccc1
48 to 50 °C	CCc1cc(Cl)c(NN)c(Cl)c1
228 °C	Oc1ccccc1-c1nnn[nH]1
158 to 159 °C	OCc1nnc(-c2ccc3occ(-c4cccc(OC(F)(F)F)c4)c3c2)o1
258 °C	CC1(C)CCCN(C(=O)[C@H]2C[C@@H](S(=O)(=O)c3ccccc3)[C@@H](c3ccccc3F)N2C(=O)CNC(=O)Nc2cccc(C(=O)O)c2)C1 (racemic)
116 to 117 °C	CC(C)N(C(=O)n1oc(=O)[nH]c1=O)c1ccccc1
172 to 175 °C	O=C(O)CCn1c(=O)n2n(c1=O)C(C(=O)O)C=CC2 (centres undefined)
156 to 158 °C	CCC1CCCCN1CC(=O)NN=Cc1c(-c2ccccc2)nn2ccccc12 (centres undefined)

melting point	Structure (SMILES)
246 to 248 °C	O=C1CO[C@@H]2c3ccccc3OCC[C@H]2N1 (relative stereo)
238 to 239 °C	C=CCOc1ccccc1-c1nc2nc(SC)nnc2c(=O)[nH]1
73 to 76 °C	OC(COc1ccc(Cl)cc1)CN1CCN(c2ncccc2F)CC1 (centres undefined)
189 °C	OCC1OC(n2cnc3c(Nc4ccccc4)ccnc32)C(O)C1O (centres undefined)
189 to 191 °C	CCOC(=O)c1nn(-c2ccc(Cl)cc2)c(=O)c2c(N)scc12
242 to 244 °C	O=CCCc1cc(F)c2ncc(C(=O)NCc3ccc(Cl)cc3)c(O)c2c1
205 to 207 °C	NC(=O)c1ccccc1NC(=O)c1ccc(Cl)cc1
175 °C	CC(=O)SCC(Cc1c(Cl)cccc1Cl)C(=O)NN1CCOCC1 (centres undefined)
142 to 144 °C	CC1Cc2c(c(S(N)(=O)=O)nn2C)C(=O)O1 (centres undefined)
198 to 199 °C	CN(C)c1ccc(CN/C=C2\C(=O)NC(=O)c3ccc(I)cc32)cc1O
98 to 100 °C	CCCn1c(Cl)nc2ccc(I)cc2c1=O
62 to 63 °C	C=CCOc1cc2c(cc1C(C)=O)CCCC2
114 to 116 °C	CCOP(=O)(OCC)c1nc(N2CCOCC2)nc(N2CCOCC2)n1
78 to 79 °C	CC(C)(C)OC(=O)N1CCOc2ccccc21
69 to 71 °C	CCOC(=O)C(Cl)(Cl)CCCCCCCCCCCCS(=O)(=O)c1ccccc1
65 to 67 °C	CCN(CC)C(=O)c1c(C(F)F)ccc(F)c1[Si](C)(C)C
175 to 177 °C	CC(N=C(NN)NN)C(=O)O (centres undefined)
125 to 126 °C	COc1ccc(C(=O)Nc2ccccc2C(C)c2ccccn2)cc1 (centres undefined)
281 to 282 °C	CC(C)(C)c1ccc(C(=O)Nc2cn3nc(-n4cnc(Cl)c4Cl)ccc3n2)cc1
163 to 164 °C	CCOC(=O)C1=C(C)NC(C)=C(C(=O)OC)C1c1cc([N+](=O)[O-])ccc1Cl (centres undefined)
62 to 66 °C	COCCOC(=O)C1=C(C)NC(C)=C(C(=O)OCCN2CCN(C(c3ccccc3)c3ccccc3)CC2)C1c1cccc([N+](=O)[O-])c1 (centres undefined)
120 to 121 °C	Cc1sc(-c2ccccc2)nc1COc1ccc(COc2ncccc2C#N)cc1
241 °C	O=C(Nc1nc(C(F)(F)F)co1)C1c2ccccc2Oc2ccc(F)cc21 (racemic)

melting point	Structure (SMILES)
185 to 187 °C	COc1cc(C(C)C)c2c(c1)S(=O)(=O)N(COc1cc(C(F)(F)F)nn1-c1ccc([N+](=O)[O-])cc1)C2=O
97 to 99 °C	COC(=O)c1cc(Cl)c(OCCn2ccnc2)s1
88 to 90 °C	CCNC(=O)n1nc(Oc2c(Cl)cc(C(F)(F)F)cc2Cl)cc1C(=O)OC
137 to 142 °C	CC(C)(C)c1ccc(NC(=O)N2CCCC3(CC2)CC(c2ccccc2)=NO3)cc1 (centres undefined)
91 to 93 °C	COC1=C(OC)C(=O)C2=C(CCC(CCOc3cc(OC)c(OC)c(OC)c3)CC2)C1=O
145 to 146 °C	Cc1cc(-n2nc(C(F)F)cc2-c2ccc(S(C)(=O)=O)cc2)ccc1Cl
161 to 163 °C	CCOC(=O)C(C)=NNc1ccc(Cl)c(F)c1
121 to 124 °C	CCOC(=O)[C@H](CCc1ccccc1)N[C@@H](Cc1ccccc1)C(=O)NCCc1scnc1C(=O)O
225 to 228 °C	O=C(O)Cc1ccc(NC(=O)C(COc2cccc(Cl)c2)NS(=O)(=O)c2ccc(Br)cc2)cc1 (racemic)
142 to 143 °C	CSCc1cn(C)c2ccc(C)cc2c1=O
67 to 70 °C	CS(=O)(=O)c1ccc(-c2nn3ccoc3c2-c2ccc(F)cc2)cc1
157 to 163 °C	NS(=O)(=O)c1ccccc1-c1cnco1
163 °C	COc1ccc(Oc2ccc3ccc(NC(=O)c4ccc(OC)cc4)nc3n2)cc1
113 to 114 °C	O=C(NCCCCc1ccccc1)Oc1ccc2oc3ccccc3c2c1
258 to 262 °C	CCOP(=O)(OCC)c1cc2cc([N+](=O)[O-])c(Cl)cc2[nH]c1=O
142 to 145 °C	COC(=O)C(C)=C(C)C(=O)N(C(=O)c1ccccc1)c1cc(OC)c(Cl)cc1F
36 °C	CCC(C)(C)NC(=O)C(=O)C(C)(C)C
109 to 110 °C	COC(=O)c1cc(OCCCN2CCN(c3cccc4sccc34)CC2)n(C)n1
238 to 239 °C	NC(=O)c1c(Cl)c(-c2ccccc2)n2c1CN(C(=O)c1ccco1)CC2
68 to 69 °C	CCc1nc(-c2cccc(C)c2)c(-c2ccnc(CC#N)c2)s1
170 to 171 °C	NCCOCn1cnc2c(N)ncnc21
102 to 103 °C	Cn1nc(N)nc1NCCCOc1cccc(CNC2CCCCC2)c1
219 to 221 °C	CCCOc1ccccc1-c1nc(-c2nnn[nH]2)cc(=O)[nH]1

melting point	Structure (SMILES)
131 to 133 °C	CCc1cc(C)c2c(-c3cccc(Cl)c3)cc(=S)n(C)c2n1
95 to 97 °C	O=C(Cn1ncc(-c2ccccc2)c1-c1ccccc1)NCCN1CCCCC1
190 °C	COc1ccc(C(=O)Nc2cccc3[nH]ccc23)c(O)c1
120 °C	COC(=O)c1nc2nc(COC(C)=O)cc(Cl)n2n1
283 to 286 °C	CN(C)CCN1C(=O)N2[C@H](c3cccc(O)c3)c3[nH]c4ccc(Cl)cc4c3C[C@@]2(C)C1=O (racemic)
213 to 214 °C	CC(C)(C)OC(=O)N1CCN(C(=O)c2cc3ccccc3[nH]2)CC1
> 400 °C	CC(C)CC(=O)Oc1n[nH]c(=O)c2nc3cc(Cl)ccc3c(O)c12
103 to 106 °C	CC(=O)N1CCc2ccc(C(=O)CCCCl)cc2CC1
118 to 119 °C	CCc1cccc2c3c([nH]c12)C(CC)(CCF)OCC3 (centres undefined)
280 to 281 °C	N#Cc1c(-c2ccccc2)c(-c2ccccc2)n[nH]c1=O
240 to 244 °C	N#Cc1cc(N)c(N)c(C#N)c1
123 to 124 °C	Cc1oc(-c2ccco2)nc1CCc1ccc(CCCC2OC(=O)NC2=O)cc1 (centres undefined)
88 to 90 °C	CN1CN(C)C(=O)N(C)C1=O
188 to 190 °C	NC(=O)c1cc(OC(F)(F)F)ccc1O
146 to 147 °C	CCCS(=O)(=O)c1c(C)nn(-c2c(Cl)cc(C(F)(F)F)cc2Cl)c1N
212 to 214 °C	O=C(Nc1ccc(C(F)(F)F)cc1)N1CC(c2ccccc2)C(c2ccc(Cl)cc2)N1 (centres undefined)
179 to 181 °C	CC(=O)N(CC(=O)N1c2ccccc2N(Cc2ccccc2)C(=O)[C@H]2CCC[C@H]21)Cc1ccccc1 (relative stereo)
108 to 110 °C	Cc1noc(NS(=O)(=O)c2cc(-c3ccccc3)cs2)c1Br
120 to 123 °C	N#CC12CC(c3ccccc31)c1ccccc12
132 to 134 °C	O=C(Nc1cccc(-c2ccnc3c(C(=O)c4cccs4)cnn23)c1)c1ccc(Cl)cc1Cl
177 to 178 °C	C=C(C)C(=O)Nc1cccc(OC(=O)Nc2ccccc2)c1

Structure (SMILES)	melting point
O=C1Nc2ccccc2N2CCN(CCc3ccccn3)CC12 (centres undefined)	167 to 169 °C
CC(=O)Nc1cc([N+](=O)[O-])cc([N+](=O)[O-])c1	189 to 191 °C
COc1ccc(C(O)CNCc2cccc(OC)c2OC)cc1OC (centres undefined)	96 to 97 °C
Cn1cncc1C(O)(c1ccc(Cl)cc1)c1ccc2c(c1)C(c1cccc(Cl)c1)SCC(=O)N2 (centres undefined)	210 °C
CN(C)S(=O)(=O)C(Br)(Br)Sc1ccccc1	128 to 129 °C
O=C(c1ccccc1)c1cc(Cl)ccc1-n1cnnc1CN1C(=O)c2ccccc2C1=O	229 to 230 °C
Fc1ccc(C(OP2OCCO2)(c2ccc(F)cc2)c2ccccc2F)cc1	163 to 164 °C
ClCc1cnc(Cl)cc1Cl	55 to 56 °C
CC(C)P1(=O)c2ccccc2CN1C (centres undefined)	72 to 74 °C

— a melting point compilation (Tetko et al.; mined from patent text by program, amines drawn as free bases though some values may be those of a salt)
